{"source": "ChEMBL document CHEMBL1629664", "about": "“Oral and parenteral therapeutic options for outpatient urinary infections caused by enterobacteriaceae producing CTX-M extended-spectrum beta-lactamases” (2009)", "assay_type_in_all_cases": "functional", "key": {"Enterobacteriaceae [1]": {"test_system": "Enterobacteriaceae", "test": "Antibacterial activity against beta-lactamase CTX-M ESBL-producing Enterobacteriaceae by twofold dilution method"}, "Enterobacteriaceae [2]": {"test_system": "Enterobacteriaceae", "test": "Antibacterial activity against beta-lactamase CTX-M ESBL-producing Enterobacteriaceae by twofold dilution method in presence of beta-lactamase inhibitor clavulanate"}, "Enterobacteriaceae [3]": {"test_system": "Enterobacteriaceae", "test": "Antibacterial activity against beta-lactamase CTX-M ESBL-producing Enterobacteriaceae assessed as percent susceptible isolates by twofold dilution method in presence of beta-lactamase inhibitor clavulanate"}, "Enterobacteriaceae [4]": {"test_system": "Enterobacteriaceae", "test": "Antibacterial activity against beta-lactamase SHV or TEM ESBL-producing Enterobacteriaceae by twofold dilution method"}, "Enterobacteriaceae [5]": {"test_system": "Enterobacteriaceae", "test": "Antibacterial activity against beta-lactamase SHV or TEM ESBL-producing Enterobacteriaceae by twofold dilution method in presence of beta-lactamase inhibitor clavulanate"}, "Enterobacteriaceae [6]": {"test_system": "Enterobacteriaceae", "test": "Antibacterial activity against beta-lactamase SHV or TEM ESBL-producing Enterobacteriaceae assessed as percent susceptible isolates by twofold dilution method in presence of beta-lactamase inhibitor clavulanate"}, "Enterobacteriaceae [7]": {"test_system": "Enterobacteriaceae", "test": "Antibacterial activity against beta-lactamase CTX-M ESBL-producing Enterobacteriaceae assessed as percent susceptible isolates by twofold dilution method"}, "Enterobacteriaceae [8]": {"test_system": "Enterobacteriaceae", "test": "Antibacterial activity against beta-lactamase SHV or TEM ESBL-producing Enterobacteriaceae assessed as percent susceptible isolates by twofold dilution method"}, "Enterobacteriaceae [9]": {"test_system": "Enterobacteriaceae", "test": "Antibacterial activity against beta-lactamase CTX-M ESBL-producing Enterobacteriaceae by broth microdilution method"}, "Enterobacteriaceae [10]": {"test_system": "Enterobacteriaceae", "test": "Antibacterial activity against beta-lactamase CTX-M ESBL-producing Enterobacteriaceae assessed as percent susceptible isolates by broth microdilution method"}, "Enterobacteriaceae [11]": {"test_system": "Enterobacteriaceae", "test": "Antibacterial activity against beta-lactamase SHV or TEM ESBL-producing Enterobacteriaceae by broth microdilution method"}, "Enterobacteriaceae [12]": {"test_system": "Enterobacteriaceae", "test": "Antibacterial activity against beta-lactamase SHV or TEM ESBL-producing Enterobacteriaceae assessed as percent susceptible isolates by broth microdilution method"}, "Escherichia coli [13]": {"test_system": "Escherichia coli", "test": "Antibacterial activity against beta-lactamase ESBL-producing Escherichia coli assessed as percent susceptible isolates by broth microdilution method"}, "Proteus mirabilis": {"test_system": "Proteus mirabilis", "test": "Antibacterial activity against beta-lactamase ESBL-producing Proteus mirabilis assessed as percent susceptible isolates by broth microdilution method"}, "Klebsiella sp.": {"test_system": "Klebsiella sp.", "test": "Antibacterial activity against beta-lactamase ESBL-producing Klebsiella sp. assessed as percent susceptible isolates by broth microdilution method"}, "Escherichia coli [14]": {"test_system": "Escherichia coli", "test": "Antibacterial activity against beta-lactamase ESBL-producing Escherichia coli by broth microdilution method"}, "Enterobacteriaceae [15]": {"test_system": "Enterobacteriaceae", "test": "Antibacterial activity against beta-lactamase CTX-M ESBL-producing Enterobacteriaceae by agar dilution method"}, "Enterobacteriaceae [16]": {"test_system": "Enterobacteriaceae", "test": "Antibacterial activity against beta-lactamase CTX-M ESBL-producing Enterobacteriaceae assessed as percent susceptible isolates by agar dilution method"}, "Enterobacteriaceae [17]": {"test_system": "Enterobacteriaceae", "test": "Antibacterial activity against beta-lactamase SHV or TEM ESBL-producing Enterobacteriaceae by agar dilution method"}, "Enterobacteriaceae [18]": {"test_system": "Enterobacteriaceae", "test": "Antibacterial activity against beta-lactamase SHV or TEM ESBL-producing Enterobacteriaceae assessed as percent susceptible isolates by agar dilution method"}}}
{"smiles": "CC1(C)S[C@@H]2[C@H](NC(=O)[C@H](N)c3ccc(O)cc3)C(=O)N2[C@H]1C(=O)O", "note": "[AMOXICILLIN]", "values": [{"measurement": "MIC50", "setting": "Enterobacteriaceae [1]", "value": 4, "unit": "µg/mL"}, {"measurement": "MIC90", "setting": "Enterobacteriaceae [1]", "value": 4, "unit": "µg/mL"}, {"measurement": "MIC50", "setting": "Enterobacteriaceae [2]", "value": 32, "unit": "µg/mL"}, {"measurement": "MIC90", "setting": "Enterobacteriaceae [2]", "value": 32, "unit": "µg/mL"}, {"measurement": "Activity", "setting": "Enterobacteriaceae [3]", "value": 10.9, "unit": "%"}, {"measurement": "MIC50", "setting": "Enterobacteriaceae [4]", "value": 4, "unit": "µg/mL"}, {"measurement": "MIC90", "setting": "Enterobacteriaceae [4]", "value": 4, "unit": "µg/mL"}, {"measurement": "MIC50", "setting": "Enterobacteriaceae [5]", "value": 32, "unit": "µg/mL"}, {"measurement": "MIC90", "setting": "Enterobacteriaceae [5]", "value": 32, "unit": "µg/mL"}, {"measurement": "Activity", "setting": "Enterobacteriaceae [6]", "value": 45.5, "unit": "%"}]}
{"smiles": "C=CC1=C(C(=O)O)N2C(=O)[C@@H](NC(=O)/C(=N\\O)c3csc(N)n3)[C@H]2SC1", "note": "[CEFDINIR]", "values": [{"measurement": "MIC50", "setting": "Enterobacteriaceae [1]", "value": 16, "unit": "µg/mL"}, {"measurement": "MIC90", "setting": "Enterobacteriaceae [1]", "value": 16, "unit": "µg/mL"}, {"measurement": "Activity", "setting": "Enterobacteriaceae [7]", "value": 0, "unit": "%"}, {"measurement": "MIC50", "setting": "Enterobacteriaceae [4]", "value": 4, "unit": "µg/mL"}, {"measurement": "MIC90", "setting": "Enterobacteriaceae [4]", "value": 16, "unit": "µg/mL"}, {"measurement": "Activity", "setting": "Enterobacteriaceae [8]", "value": 0, "unit": "%"}]}
{"smiles": "O=C(O)c1cn(C2CC2)c2cc(N3CCNCC3)c(F)cc2c1=O", "note": "[CIPROFLOXACIN]", "values": [{"measurement": "MIC50", "setting": "Enterobacteriaceae [9]", "value": 32, "unit": "µg/mL"}, {"measurement": "MIC90", "setting": "Enterobacteriaceae [9]", "value": 32, "unit": "µg/mL"}, {"measurement": "Activity", "setting": "Enterobacteriaceae [10]", "value": 4.3, "unit": "%"}, {"measurement": "MIC50", "setting": "Enterobacteriaceae [11]", "value": 32, "unit": "µg/mL"}, {"measurement": "MIC90", "setting": "Enterobacteriaceae [11]", "value": 32, "unit": "µg/mL"}, {"measurement": "Activity", "setting": "Enterobacteriaceae [12]", "value": 36.4, "unit": "%"}]}
{"smiles": "C[C@H]1c2cccc(O)c2C(=O)C2=C(O)[C@]3(O)C(=O)C(C(N)=O)=C(O)[C@@H](N(C)C)[C@@H]3[C@@H](O)[C@@H]21.O", "note": "[DOXYCYCLINE]", "values": [{"measurement": "MIC50", "setting": "Enterobacteriaceae [9]", "value": 16, "unit": "µg/mL"}, {"measurement": "MIC90", "setting": "Enterobacteriaceae [9]", "value": 16, "unit": "µg/mL"}, {"measurement": "Activity", "setting": "Enterobacteriaceae [10]", "value": 10.9, "unit": "%"}, {"measurement": "MIC50", "setting": "Enterobacteriaceae [11]", "value": 16, "unit": "µg/mL"}, {"measurement": "MIC90", "setting": "Enterobacteriaceae [11]", "value": 16, "unit": "µg/mL"}, {"measurement": "Activity", "setting": "Enterobacteriaceae [12]", "value": 18.2, "unit": "%"}]}
{"smiles": "C[C@@H](O)[C@H]1C(=O)N2C(C(=O)O)=C(S[C@@H]3CN[C@H](C(=O)Nc4cccc(C(=O)O)c4)C3)[C@H](C)[C@H]12", "note": "[ERTAPENEM]", "values": [{"measurement": "MIC50", "setting": "Enterobacteriaceae [9]", "value": 0.06, "unit": "µg/mL"}, {"measurement": "MIC90", "setting": "Enterobacteriaceae [9]", "value": 0.25, "unit": "µg/mL"}, {"measurement": "Activity", "setting": "Enterobacteriaceae [10]", "value": 100, "unit": "%"}, {"measurement": "Activity", "setting": "Escherichia coli [13]", "value": 100, "unit": "%"}, {"measurement": "Activity", "setting": "Proteus mirabilis", "value": 100, "unit": "%"}, {"measurement": "Activity", "setting": "Klebsiella sp.", "value": 100, "unit": "%"}, {"measurement": "MIC90", "setting": "Escherichia coli [14]", "value": 0.06, "unit": "µg/mL"}, {"measurement": "MIC50", "setting": "Enterobacteriaceae [11]", "value": 0.12, "unit": "µg/mL"}, {"measurement": "MIC90", "setting": "Enterobacteriaceae [11]", "value": 1, "unit": "µg/mL"}, {"measurement": "Activity", "setting": "Enterobacteriaceae [12]", "value": 100, "unit": "%"}]}
{"smiles": "C[C@@H]1O[C@@H]1P(=O)(O)O", "note": "[FOSFOMYCIN]", "values": [{"measurement": "MIC50", "setting": "Enterobacteriaceae [15]", "value": 0.5, "unit": "µg/mL"}, {"measurement": "MIC90", "setting": "Enterobacteriaceae [15]", "value": 64, "unit": "µg/mL"}, {"measurement": "Activity", "setting": "Enterobacteriaceae [16]", "value": 91.3, "unit": "%"}, {"measurement": "MIC50", "setting": "Enterobacteriaceae [17]", "value": 4, "unit": "µg/mL"}, {"measurement": "MIC90", "setting": "Enterobacteriaceae [17]", "value": 8, "unit": "µg/mL"}, {"measurement": "Activity", "setting": "Enterobacteriaceae [18]", "value": 100, "unit": "%"}]}
{"smiles": "O=C1CN(/N=C/c2ccc([N+](=O)[O-])o2)C(=O)N1", "note": "[NITROFURANTOIN]", "values": [{"measurement": "MIC50", "setting": "Enterobacteriaceae [9]", "value": 16, "unit": "µg/mL"}, {"measurement": "MIC90", "setting": "Enterobacteriaceae [9]", "value": 64, "unit": "µg/mL"}, {"measurement": "Activity", "setting": "Enterobacteriaceae [10]", "value": 73.9, "unit": "%"}, {"measurement": "MIC50", "setting": "Enterobacteriaceae [11]", "value": 64, "unit": "µg/mL"}, {"measurement": "MIC90", "setting": "Enterobacteriaceae [11]", "value": 64, "unit": "µg/mL"}, {"measurement": "Activity", "setting": "Enterobacteriaceae [12]", "value": 45.5, "unit": "%"}]}
